This is an account of results in PMC3433276 (Bioorganic & medicinal chemistry letters, 2012).

What is called EC50 is the midpoint of the concentration-response curve. A high value points to weaker potency. In general, IC50 refers to the point on the concentration scale where inhibition reaches its midpoint. High values mean a need for much substance, low ones inhibition by little substance.

The subject of test [1] is panel of multidrug-resistant HIV-1 strains. Nature of the test: microbe, parasite or virus in culture. It is filed as cell-based. To be noted: for fold-changes in EC50: against all MDR HIV-1 viruses compared to wild type.
The next test has as its system HIV-1LAI. Put plainly: Antiviral MTT assay in MT-2 cells exposed to HIV-1LAI. In kind it is cell-based. To be noted: Human immunodeficiency virus 1, MT2.

As for `COC(=O)N[C@@H]1CO[C@@H]2C[C@H](OC(=O)N[C@@H](Cc3ccccc3)[C@H](O)CN(CC(C)C)S(=O)(=O)c3ccc(OC)cc3)C[C@H]12` [Inhibitor 3c], the “fold-changes in EC50” value in test [1] is below 3.

`COC(=O)N[C@H]1CO[C@@H]2C[C@H](OC(=O)N[C@@H](Cc3ccccc3)[C@H](O)CN(CC(C)C)S(=O)(=O)c3ccc(OC)cc3)C[C@H]12` [Inhibitor 3d] yielded a half-maximal effective concentration (EC50) in test [1] (Human immunodeficiency virus 1) of 15 to 24 nM. The “fold-changes in EC50” value in test [1] is recorded as “increased by a factor of at least three”.

The compound `CC(C)CN(C[C@@H](O)[C@H](Cc1ccccc1)NC(=O)O[C@H]1CCOC1)S(=O)(=O)c1ccc(N)cc1` [amprenavir] yielded a 50% inhibitory concentration (IC50) in the test with HIV-1LAI of 30 nM.
